# Biological target: T1, Nav 1.7 (Homo sapiens, UniProt Q15858)
# T1 construct: expressed in transfected cells
# Assay: Whole-cell voltage clamp electrophysiology, automated patch clamp (marker c in Table of Examples)
# Type: cell-based
# Conditions: marker c = Automated patch clamp data; read-out: Nav 1.7 activity
# Method in brief: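 A voltage protocol weighted toward inactivated-state block was used to test compounds on stably expressing cells, with pulses from −65 mV holding to −10 mV test and −100 mV. Currents came from whole-cell automated patch-clamp recordings, either IonWorks Quattro or other automated instruments, usually in perforated-patch mode.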
# T1 sequence (Q15858 whole entry): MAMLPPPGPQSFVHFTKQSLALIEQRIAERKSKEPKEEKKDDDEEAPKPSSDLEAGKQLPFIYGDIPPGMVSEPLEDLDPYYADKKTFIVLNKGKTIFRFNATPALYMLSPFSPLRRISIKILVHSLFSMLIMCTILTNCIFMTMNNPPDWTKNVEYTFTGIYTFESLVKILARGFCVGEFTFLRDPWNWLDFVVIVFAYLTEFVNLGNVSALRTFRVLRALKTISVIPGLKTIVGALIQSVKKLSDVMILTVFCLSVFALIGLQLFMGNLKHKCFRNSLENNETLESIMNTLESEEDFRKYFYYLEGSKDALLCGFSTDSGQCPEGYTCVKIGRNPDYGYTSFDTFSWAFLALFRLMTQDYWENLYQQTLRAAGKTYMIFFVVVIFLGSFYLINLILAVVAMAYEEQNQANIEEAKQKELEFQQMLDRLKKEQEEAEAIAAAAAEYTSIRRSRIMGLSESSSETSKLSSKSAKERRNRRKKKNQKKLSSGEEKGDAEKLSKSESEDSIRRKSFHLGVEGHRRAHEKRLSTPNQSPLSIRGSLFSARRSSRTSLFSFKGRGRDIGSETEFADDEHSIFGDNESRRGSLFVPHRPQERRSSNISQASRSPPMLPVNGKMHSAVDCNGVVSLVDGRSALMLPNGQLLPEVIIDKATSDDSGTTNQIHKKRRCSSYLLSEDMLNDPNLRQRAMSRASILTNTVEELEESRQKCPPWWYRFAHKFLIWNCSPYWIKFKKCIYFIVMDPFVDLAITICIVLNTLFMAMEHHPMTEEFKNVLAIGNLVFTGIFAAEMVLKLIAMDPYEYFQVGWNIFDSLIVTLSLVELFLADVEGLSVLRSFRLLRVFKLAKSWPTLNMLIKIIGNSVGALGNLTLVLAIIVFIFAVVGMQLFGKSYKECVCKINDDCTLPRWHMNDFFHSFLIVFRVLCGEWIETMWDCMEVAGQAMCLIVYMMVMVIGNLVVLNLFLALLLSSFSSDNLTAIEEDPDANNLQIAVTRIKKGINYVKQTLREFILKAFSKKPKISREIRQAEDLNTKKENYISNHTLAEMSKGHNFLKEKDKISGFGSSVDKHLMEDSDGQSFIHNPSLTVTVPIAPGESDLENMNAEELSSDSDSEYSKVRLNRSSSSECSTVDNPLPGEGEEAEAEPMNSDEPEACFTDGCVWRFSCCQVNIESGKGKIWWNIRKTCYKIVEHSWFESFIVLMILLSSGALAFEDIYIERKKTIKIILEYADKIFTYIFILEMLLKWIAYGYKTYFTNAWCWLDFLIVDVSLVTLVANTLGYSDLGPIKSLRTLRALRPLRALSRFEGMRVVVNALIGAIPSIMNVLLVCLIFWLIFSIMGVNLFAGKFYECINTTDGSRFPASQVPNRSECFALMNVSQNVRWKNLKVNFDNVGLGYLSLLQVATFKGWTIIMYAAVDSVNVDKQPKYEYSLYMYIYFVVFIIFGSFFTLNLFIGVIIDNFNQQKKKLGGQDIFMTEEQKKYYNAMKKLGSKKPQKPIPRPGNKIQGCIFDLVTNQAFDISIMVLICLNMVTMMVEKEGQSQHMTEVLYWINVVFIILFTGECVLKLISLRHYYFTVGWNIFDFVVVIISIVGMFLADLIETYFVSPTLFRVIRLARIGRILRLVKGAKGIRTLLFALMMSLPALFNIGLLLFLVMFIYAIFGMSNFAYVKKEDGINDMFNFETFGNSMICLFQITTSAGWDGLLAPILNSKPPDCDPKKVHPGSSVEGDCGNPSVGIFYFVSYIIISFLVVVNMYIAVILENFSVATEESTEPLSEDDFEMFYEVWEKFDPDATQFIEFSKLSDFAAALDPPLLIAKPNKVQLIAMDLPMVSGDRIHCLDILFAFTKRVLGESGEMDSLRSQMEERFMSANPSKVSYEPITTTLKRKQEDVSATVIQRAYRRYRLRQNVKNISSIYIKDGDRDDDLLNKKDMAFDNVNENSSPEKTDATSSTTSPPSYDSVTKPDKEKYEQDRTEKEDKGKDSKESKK
row,IC50 [µM],SMILES
1,0.338,"CN(c1ccccc1)c1nc(N)nc(-c2noc(-c3cccnc3COCC(F)(F)F)n2)n1 [Example 301, 2-N-methyl-2-N-phenyl-6-(5-{2-[(2,2,2-trifluoroethoxy)methyl]pyridin-3-yl}-1,2,4-oxadiazol-3-yl)-1,3,5-triazine-2,4-diamine]"
2,0.406,"CN(c1ccccc1)c1nc(N)nc(-c2noc(-c3ncccc3COCC(F)(F)F)n2)n1 [Example 302, 2-N-methyl-2-N-phenyl-6-(5-{3-[(2,2,2-trifluoroethoxy)methyl]pyridin-2-yl}-1,2,4-oxadiazol-3-yl)-1,3,5-triazine-2,4-diamine]"
3,0.746,"CC(=O)c1ccc(-c2nc(-c3nc(N)nc(N(C)c4ccccc4)n3)no2)cn1 [Example 304, 1-[5-(3-{4-Amino-6-[methyl(phenyl)amino]-1,3,5-triazin-2-yl}-1,2,4-oxadiazol-5-yl)pyridin-2-yl]ethan-1-one]"
4,0.804,"C=Cc1ccc(-c2nc(-c3nc(N)nc(N(C)c4ccccc4)n3)no2)cc1 [Example 305, 6-[5-(4-ethenylphenyl)-1,2,4-oxadiazol-3-yl]-2-N-methyl-2-N-phenyl-1,3,5-triazine-2,4-diamine]"
5,2.67,"CN(c1ccccc1)c1nc(N)nc(-c2noc(-c3ccc4c(c3)COC4)n2)n1 [Example 306, 6-(5-(1,3-dihydro-2-benzofuran-5-yl)-1,2,4-oxadiazol-3-yl]-2-N-methyl-2-N-phenyl-1,3,5-triazine-2,4-diamine]"
6,8.05,"CCCS(=O)(=O)N1CC(c2nc(-c3nc(N)nc(N(C)c4ccccc4)n3)no2)C1 [Example 307, 2-N-methyl-2-N-phenyl-6-{5-[1-(propane-1-sulfonyl)azetidin-3-yl]-1,2,4-oxadiazol-3-yl}-1,3,5-triazine-2,4-diamine]"
7,8.77,"CC(C)S(=O)(=O)N1CC(c2nc(-c3nc(N)nc(N(C)c4ccccc4)n3)no2)C1 [Example 308, 2-N-methyl-2-N-phenyl-6-{5-[1-(propane-2-sulfonyl)azetidin-3-yl]-1,2,4-oxadiazol-3-yl}-1,3,5-triazine-2,4-diamine]"
8,1.73,"CCS(=O)(=O)N1CC(c2nc(-c3nc(N)nc(N(C)c4ccccc4)n3)no2)C1 [Example 309, 6-{5-[1-(ethanesulfonyl)azetidin-3-yl]-1,2,4-oxadiazol-3-yl}-2-N-methyl-2-N-phenyl-1,3,5-triazine-2,4-diamine]"
9,0.968,"CN(c1ccccc1)c1nc(N)nc(-c2noc(C3CN(S(=O)(=O)CC(F)(F)F)C3)n2)n1 [Example 310, 2-N-methyl-2-N-phenyl-6-(5-{1-[(2,2,2-trifluoroethane)sulfonyl]azetidin-3-yl}-1,2,4-oxadiazol-3-yl)-1,3,5-triazine-2,4-diamine]"
10,0.451,"COCCN(c1ccccc1)c1nc(N)nc(-c2noc(-c3ccc(C(=O)OC)nc3)n2)n1 [Example 311, methyl 5-(3-{4-amino-6-[(2-methoxyethyl)(phenyl)amino]-1,3,5-triazin-2-yl}-1,2,4-oxadiazol-5-yl)pyridine-2-carboxylate]"
11,0.139,"COCCN(c1ccccc1)c1nc(N)nc(-c2noc(-c3ccc(COCC(F)(F)F)nc3)n2)n1 [Example 312, 2-N-(2-Methoxyethyl)-2-N-phenyl-6-(5-{6-[(2,2,2-trifluoroethoxy)methyl]pyridin-3-yl}-1,2,4-oxadiazol-3-yl)-1,3,5-triazine-2,4-diamine]"
12,4.86,"CN(c1ccccc1)c1nc(N)nc(-c2noc(C3CN(S(=O)(=O)c4ccccc4)C3)n2)n1 [Example 313, 6-{5-[1-(benzenesulfonyl)azetidin-3-yl]-1,2,4-oxadiazol-3-yl}-2-N-methyl-2-N-phenyl-1,3,5-triazine-2,4-diamine]"
13,3.07,"CN(c1ccccc1)c1nc(N)nc(-c2noc(C3CN(CC(F)(F)F)C3)n2)n1 [Example 314, 2-N-Methyl-2-N-phenyl-6-{5-[1-(2,2,2-trifluoroethyl)azetidin-3-yl]-1,2,4-oxadiazol-3-yl}-1,3,5-triazine-2,4-diamine]"
14,0.17,"CN(c1ccccc1)c1nc(N)nc(-c2noc(-c3ccc(CCC(F)(F)F)nc3)n2)n1 [Example 315, 2-N-methyl-2-N-phenyl-6-{5-[6-(3,3,3-trifluoropropyl)pyridin-3-yl]-1,2,4-oxadiazol-3-yl}-1,3,5-triazine-2,4-diamine]"
15,0.013,"CN(c1ccccc1)c1nc(N)nc(-c2noc(-c3ccc(CSCC(F)(F)F)nc3)n2)n1 [Example 316, 2-N-methyl-2-N-phenyl-6-[5-(6-{[(2,2,2-trifluoroethyl)sulfanyl]methyl}pyridin-3-yl)-1,2,4-oxadiazol-3-yl]-1,3,5-triazine-2,4-diamine]"
16,2.77,"CN(c1ccccc1)c1nc(N)nc(-c2noc(-c3ccc(C[S+]([O-])CC(F)(F)F)nc3)n2)n1 (stereo not drawn) [Example 317, 2-N-Methyl-2-N-phenyl-6-[5-(6-{[(2,2,2-trifluoroethane)sulfinyl]methyl}pyridin-3-yl)-1,2,4-oxadiazol-3-yl]-1,3,5-triazine-2,4-diamine]"
17,1.89,"CN(c1ccccc1)c1nc(N)nc(-c2noc(-c3ccc(SCC(F)(F)F)nc3)n2)n1 [Example 318, 2-N-methyl-2-N-phenyl-6-(5-{6-[(2,2,2-trifluoroethyl)sulfanyl]pyridin-3-yl}-1,2,4-oxadiazol-3-yl)-1,3,5-triazine-2,4-diamine]"
18,0.15,"Nc1nc(Nc2ccccc2)nc(-c2noc(-c3ccc(CCC(F)(F)F)nc3)n2)n1 [Example 319, 2-N-phenyl-6-{5-[6-(3,3,3-trifluoropropyl)pyridin-3-yl]-1,2,4-oxadiazol-3-yl}-1,3,5-triazine-2,4-diamine]"
19,0.149,"CN(c1ccccc1)c1nc(N)nc(-c2noc(-c3ccc(CS(=O)(=O)CC(F)(F)F)nc3)n2)n1 [Example 321, 2-N-methyl-2-N-phenyl-6-[5-(6-{[(2,2,2-trifluoroethane)sulfonyl]methyl}pyridin-3-yl)-1,2,4-oxadiazol-3-yl]-1,3,5-triazine-2,4-diamine]"
20,3.27,"CN(c1ccccc1)c1nc(N)nc(-c2noc(C(=O)N3CCC(=CCC(F)(F)F)CC3)n2)n1 [Example 322, 2-N-methyl-2-N-phenyl-6-(5-{[4-(3,3,3-trifluoropropylidene)piperidin-1-yl]carbonyl}-1,2,4-oxadiazol-3-yl)-1,3,5-triazine-2,4-diamine]"
21,6.45,"CN(c1ccccc1)c1nc(N)nc(-c2noc(N3Cc4cncnc4C3)n2)n1 [Example 323, 2-N-Methyl-2-N-phenyl-6-(5-{5H,6H,7H-pyrrolo[3,4-d]pyrimidin-6-yl}-1,2,4-oxadiazol-3-yl)-1,3,5-triazine-2,4-diamine]"
22,2.36,"CN(c1ccccc1)c1nc(N)nc(-c2noc(N3CCC(=CCC(F)(F)F)CC3)n2)n1 [Example 324, 2-N-Methyl-2-N-phenyl-6-{5-[4-(3,3,3-trifluoropropylidene)piperidin-1-yl]-1,2,4-oxadiazol-3-yl}-1,3,5-triazine-2,4-diamine]"
23,0.435,"Nc1nc(Nc2cc(Cl)ccc2F)nc(-c2noc(-c3ccccn3)n2)n1 [Example 325, 2-N-(5-chloro-2-fluorophenyl)-6-[5-(pyridin-2-yl)-1,2,4-oxadiazol-3-yl]-1,3,5-triazine-2,4-diamine]"
24,1.86,"CN(c1ccccc1)c1nc(N)nc(-c2noc(-c3ccc(NCC(F)(F)F)nc3)n2)n1 [Example 327, 2-N-Methyl-2-N-phenyl-6-(5-{6-[(2,2,2-trifluoroethyl)amino]pyridin-3-yl}-1,2,4-oxadiazol-3-yl)-1,3,5-triazine-2,4-diamine]"

# From patent publication US8895733B2 (Novartis AG, priority 2010, dated 2014)
